The target in experiment [1] is T1, APC (Homo sapiens, UniProt P04070). The experiment is described as follows: Xa-1-stage coagulation assay, inhibition of APC anticoagulant activity. The format is biochemical. Also on record: Protein C consists of a 155 amino acid residue light chain and a 262 amino acid residue heavy chain; from tissue; host or cells: human plasma factor IX concentrate. As to conditions: final peptide concentration 500 μM; NHP; 0 = no observable effect +10%. The procedure:
For testing the inhibition of the synthetic peptides on APC activity described above, Xa-1-stage coagulation assays were also performed as described. See Seegers et al., Thrombosis Res., 13:233-243 (1978); Marlar et al., supra; and Walker et al., J. Biol. Chem., 265:1484-1489 (1990). PC heavy chain-derived peptides listed below in Table 6 and PC light chain-derived peptides listed below in Table 7 were prepared as described above and separately admixed for a final concentration of 2 mM with 120 nM APC in 100 μl of TBS-BSA at pH 7.4 to form separate peptide-APC admixtures. The resulting admixtures were maintained for ten minutes at 37° C. Separate aliquots of peptides maintained under the same conditions in the absence of APC served as controls for the inhibitory effect of synthetic peptides on APC anticoagulant activity. After the maintenance period, 100 μl of NHP and 100 μl of 200 μg/ml of rabbit brain cephalin (Sigma) were admixed into each peptide admixture and maintained for 200 seconds at 37° C. to form pre-coagulation admixtures. In some experiments, Factor VIII deficient plasma (George King Bio-Medical, Inc.) was used in the place of NHP to determine the effect of Factor VIII on the assay system. Coagulation was then initiated by the admixture of 100 μl of 0.62 nM human activated Factor X (Xa) (Enzyme Research Laboratories, Southbend, Ind.) in TBS-BSA containing 30 mM CaCl2 prewarmed to 37° C. to each of the pre-coagulation admixtures.
The time for clot formation was measured by an Electra 700 Automatic Coagulation Timer (Medical Laboratory Automation, Inc., Mount Vernon, N.Y.). Each peptide's effect was determined in duplicate. The results of the inhibition of APC anticoagulant activity by synthetic peptides as measured in Xa-1-stage coagulation assays are presented in Tables 6 and 7 below with the APTT assay results and are presented as the mean values obtained with APTT assays. Data for results with PC heavy chain-derived peptides are shown in Table 6 and data for results with PC light chain-derived peptides are shown in Table 7.
The results of inhibition of APC anticoagulant activity by PC light chain-derived peptides in a Xa-1 stage coagulation assay are shown in Table 7. The assay was performed in the presence of NHP. Peptides used in the assay were prepared as described in Example 1 and are listed in Table 7 by their corresponding residue positions in native PC protein (SEQ ID NO 1). For all peptides except PC142-155 used in the Xa-1 stage assays listed in Table 7, cysteine residues in the native PC amino acid residue sequence were substituted by either serine or glycine in the synthesized peptide. This was done to prevent multiple disulfide formation and subsequent potential polymerization among peptides with multiple cysteines. […]
Target sequence in this assay (P04070 43-197 limits assumed): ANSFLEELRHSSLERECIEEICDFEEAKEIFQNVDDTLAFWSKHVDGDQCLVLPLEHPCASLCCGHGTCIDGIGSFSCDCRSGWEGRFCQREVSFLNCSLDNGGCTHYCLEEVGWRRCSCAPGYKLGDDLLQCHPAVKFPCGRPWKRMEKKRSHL
Target sequence in this assay (P04070 212-450 limits assumed): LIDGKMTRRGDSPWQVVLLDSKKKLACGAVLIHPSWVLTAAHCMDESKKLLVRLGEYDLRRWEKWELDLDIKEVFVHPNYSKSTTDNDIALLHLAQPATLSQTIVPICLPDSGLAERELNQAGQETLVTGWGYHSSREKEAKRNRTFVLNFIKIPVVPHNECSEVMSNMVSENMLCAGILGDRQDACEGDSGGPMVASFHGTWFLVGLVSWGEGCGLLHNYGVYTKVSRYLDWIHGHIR

In experiment [2] the target is T1, APC. Also on record: Protein C consists of a 155 amino acid residue light chain and a 262 amino acid residue heavy chain; from tissue; alpha1-AT mutant from Transgene, Strasbourg. Particulars: Heeb et al. 1990; cited from earlier work.
Target sequence in this assay (P04070 43-197): as the sequence (P04070 43-197 limits assumed) above
Target sequence in this assay (P04070 212-461): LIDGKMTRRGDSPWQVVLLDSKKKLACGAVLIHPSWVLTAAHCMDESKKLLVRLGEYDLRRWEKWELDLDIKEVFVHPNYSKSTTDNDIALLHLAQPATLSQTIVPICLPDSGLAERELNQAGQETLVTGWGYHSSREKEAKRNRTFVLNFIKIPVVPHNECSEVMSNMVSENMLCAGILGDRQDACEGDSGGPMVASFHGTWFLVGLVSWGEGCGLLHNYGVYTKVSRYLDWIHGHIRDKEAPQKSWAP

No end group written: not given here.

Regarding “HPAVKFPSGRPWKRM-NH2 (C-terminus assumed) [PC134-148]”, at 500 µM the inhibition against APC [1] was 66%.

On to “α1 -AT: recombinant mutant (Arg358)-α1-antitrypsin, macromolecular pseudo-substrate inhibitor of APC (Transgene)”, for which the “increase in the association rate for APC by substitution of Met358 by Arg” value with APC [2] is “over 4400 fold”.

The record behind these values is patent publication US5968751A, “Method for detecting the presence of protein C antibody in a fluid sample” (The Scripps Research Institute, priority 1997, dated 1999).
